From patent US20210330611A1, “THERAPY FOR NEUROLOGICAL DISEASES/DISORDERS” (priority 2020, published 2021)
Where a name gives a salt, the structure may show the parent alone. Read-outs that look alike come from different tables or passages of the source.

Experiments:
[1] = test system: fibrin-induced microglia activation; assay: Image-based assay of fibrin-induced microglia activation (HTS and dose response); type: cell-based, rat; conditions: for inhibition at 10 µM: Rattus norvegicus, Microglia, read-out: Fibrin % inhibition
[2] = test system: LPS-induced microglia activation; assay: Image-based assay of LPS-induced microglia activation (HTS and dose response); type: cell-based, rat; conditions: for inhibition at 10 µM: Rattus norvegicus, Microglia, read-out: LPS % inhibition
[3] = test system: fibrin- and LPS-induced microglia activation; assay: cells; type: cell-based, rat
primary rat microglia [4] = assay: Cell toxicity (dead cells, size <150 μm2) in LPS assay
primary rat microglia [5] = assay: Cell toxicity (dead cells, size <150 μm2) in coated fibrin (cFib) assay;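 note: share of dead cells sized under 150 µm2 at 10 µM in fibrin-stimulated microglia HTS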
[6] = primary HTS, 10 μM, fibrin-stimulated primary microglia
[7] = primary HTS, 10 μM, LPS-stimulated primary microglia
[8] = primary HTS, 10 μM, LPS assay, dead cells size <150 μm2
[9] = primary HTS, 10 μM, fibrin assay, dead cells size <150 μm2
[10] = primary microglia HTS, fibrin stimulation, activation = cell size >800 μm2
[11] = 48 h, primary microglia HTS, LPS stimulation, activation = cell size >800 μm2
[12] = quadrant by fibrin and LPS inhibition in HTS of 1907 compounds
[13] = primary microglia HTS, LPS stimulation, toxicity = cell size <150 μm2
[14] = primary microglia HTS, fibrin stimulation, toxicity = cell size <150 μm2
[15] = primary microglia HTS, fibrin stimulation, increased cell size (>800 μm^2) as marker of activation
[16] = 48 h, primary microglia HTS, LPS stimulation, increased cell size (>800 μm^2) as marker of activation
[17] = primary microglia HTS, LPS stimulation, decreased size (<150 μm^2) as marker of toxicity
[18] = primary microglia HTS, fibrin stimulation, decreased size (<150 μm^2) as marker of toxicity

SMILES	Quadrant (FIG. 5b) [3, 12]	inhibition at 10 µM [1, 15] [%]	inhibition at 10 µM [2, 16] [%]	LPS % cell toxicity (primary rat microglia [4]; [17]) [%]	Fibrin % cell toxicity (primary rat microglia [5]; [18]) [%]	also measured
CC1(C)S[C@@H]2[C@H](NC(=O)C(C(=O)O)c3ccccc3)C(=O)N2[C@H]1C(=O)O (some centres unmarked) [Carbenicillin]	–	–	–	–	–	inhibition at 10 µM [1, 6]: -4%; inhibition at 10 µM [2, 7]: 4%; Quadrant (FIG. 5b) ([3]; primary HTS, 10 μM): Q4; LPS % cell toxicity (primary rat microglia [4]; [8]): 0%; Fibrin % cell toxicity (primary rat microglia [5]; [9]): 1%
O=C(c1ccc(F)cc1)C1CCN(CCn2c(=O)[nH]c3ccccc3c2=O)CC1 [Ketanserin Tartrate]	Q4	–	–	–	–	inhibition at 10 µM [1, 10]: 17%; inhibition at 10 µM [2, 11]: 15%; LPS % cell toxicity (primary rat microglia [4]; [13]): 0%; Fibrin % cell toxicity (primary rat microglia [5]; [14]): 1%
CC(C)(C)CC(C)(C)c1ccc(O)c(Cc2ccc(Cl)cc2Cl)c1 [Clofoctol]	–	–	–	–	–	inhibition at 10 µM [1, 6]: -26%; inhibition at 10 µM [2, 7]: 2%; Quadrant (FIG. 5b) ([3]; primary HTS, 10 μM): Q4; LPS % cell toxicity (primary rat microglia [4]; [8]): 0%; Fibrin % cell toxicity (primary rat microglia [5]; [9]): 0%
CCN1CCC[C@H]1CNC(=O)c1cc(S(N)(=O)=O)ccc1OC [Levosulpiride]	Q4	–	–	–	–	inhibition at 10 µM [1, 10]: -36%; inhibition at 10 µM [2, 11]: 18%; LPS % cell toxicity (primary rat microglia [4]; [13]): 0%; Fibrin % cell toxicity (primary rat microglia [5]; [14]): 1%
COC(=O)C1=C(C)NC(C)=C(C(=O)OC(C)C)C1c1cccc2nonc12 (centres unmarked) [Isradipine]	Q4	–	–	–	–	inhibition at 10 µM [1, 10]: 9%; inhibition at 10 µM [2, 11]: 2%; LPS % cell toxicity (primary rat microglia [4]; [13]): 0%; Fibrin % cell toxicity (primary rat microglia [5]; [14]): 1%
CCCCC(CC)CNC(=N)NC(=N)NCCCCCCNC(=N)NC(=N)NCC(CC)CCCC (centres unmarked) [Alexidine Hydrochloride]	Q2	108	120	9	5	–
Nc1ncnc2c1ncn2[C@@H]1O[C@H](CO)[C@@H](O)[C@@H]1O [Vidarabine]	–	–	–	–	–	inhibition at 10 µM ([1]; primary microglia HTS, 10 μM, fibrin-stimulated, cell size >800 μm^2 as marker of activation): -3%; inhibition at 10 µM ([2]; primary microglia HTS, 10 μM, LPS-stimulated, cell size >800 μm^2 as marker of activation): 14%; Quadrant (FIG. 5b) ([3]; HTS of 1907 compounds, quadrant by fibrin and LPS inhibition): Q4; LPS % cell toxicity (primary rat microglia [4]; primary microglia HTS, 10 μM, LPS assay, cell size <150 μm^2 as marker of toxicity): 0%; Fibrin % cell toxicity (primary rat microglia [5]; primary microglia HTS, 10 μM, fibrin assay, cell size <150 μm^2 as marker of toxicity): 1%
CCOc1nc2cccc(C(=O)OC(C)OC(=O)OC3CCCCC3)c2n1Cc1ccc(-c2ccccc2-c2nn[nH]n2)cc1 (centres unmarked) [Candesartan Cilextil]	–	–	–	–	–	Fibrin % inhibition [1, 6]: −5%; LPS % inhibition [2, 7]: 10%; Quadrant (FIG. 5b) ([3]; primary HTS, 10 μM): Q4; LPS % cell toxicity (primary rat microglia [4]; [8]): 0%; Fibrin % cell toxicity (primary rat microglia [5]; [9]): 1%
NCCc1cc(O)c(O)cc1O [Oxidopamine Hydrochloride]	Q4	1	19	0	0	–
CC(=O)Oc1cccc(C)c1 [Meta-cresyl Acetate]	Q4	-7	-3	0	1	–
COC(=O)Nc1nc2ccc([S+]([O-])c3ccccc3)cc2[nH]1 (centres unmarked) [Oxfendazole]	Q4	10	20	1	0	–
C[N+]1(C)[C@@H]2CC[C@H]1C[C@@H](OC(=O)C(CO)c1ccccc1)C2 (some centres unmarked) [Methylatropine Nitrate]	Q4	-2	14	0	1	–
CC(=O)Nc1ncc([N+](=O)[O-])s1 [Nithiamide]	Q4	3	21	1	1	–
